# Experimental data reported in patent US4863713A, “Method and system for administering therapeutic and diagnostic agents” (priority 1986, dated 1989).
# Tests used:
# [1] = Whole body retention of radionuclide 24 hours after antibody/chelate complex (Table 1); type: in vivo; conditions: WC3A11 antibody; vs less tightly bound In-TBEDTA
# [2] = test system: KHJJ adenocarcinoma tumor; test: Tumor imaging and biodistribution after WC3A11, clearing agent and radiolabelled chelate (Example 6); type: in vivo, Balb/c mice
# Protocol: Three hours later, a whole-body scan, using computer digitation of the whole-body image, was performed on the animals.
# [3] = test system: KHJJ adenocarcinoma tumor; test: Tumor targeting, first study: antibody complexed with L-benzyl-EDTA-111In, 24 h biodistribution; type: in vivo, Balb/C mice
# Protocol: (§1) This example examines the targeting of ^111 In in animal tumors, according to the method of the invention. Balb/C mice were prepared with a KHJJ adenocarcinoma tumor implants in the flank. A hybridoma cell line designated CHA255 specific against L-benzyl-EDTA-In was prepared by methods similar to those described in Example II, using as an immunogen, an L-benzyl-EDTA-In (para-nitrophenolbenzyl-EDTA-In) group derivatized in KLH.
# In a first study, a group of three mice were initially injected with 100 ug (about 0.7 nmole) of the CHA255 antibody complexed with L-benzyl-EDTA-^111 In compound. Twenty four hours later, the animals were sacrificed, and examined for ^111 In levels in the blood, tumor, and several organs which are listed in Table 3A. The radioactivity levels were calculated in terms of percent of total radioactivity per gram tissue. The average of values obtained for three mice, and standard deviations, are given to the middle column in Table 2A. Tumor/organ (T/O) ratios are shown at the right the table.
# [4] = test system: KHJJ adenocarcinoma tumor; test: Tumor targeting, second study: antibody 23 h prior to hapten, 1 h post hapten biodistribution; type: in vivo, Balb/C mice
# Protocol: as §1
# In a second study, the antibody alone was administered to each of three animals, and allowed to localize for 23 hours, at which time the L-benzyl-EDTA-^111 In compound was administered. One hour later the animals were sacrificed and again examined for radioactivity levels.
# [5] = test system: KHJJ adenocarcinoma tumor; test: Tumor targeting, third study: antibody, clearing agent, then hapten; 3 h post hapten biodistribution; type: in vivo, Balb/C mice
# Protocol: as §1
# A third study examined the degree of tumor localization achievable by an antibody, antibody clearance, and compound administration regimen carried out in accordance with the invention. The CHA255 antibody was administered to each of three animals and allowed to localize for 24 hours, at which time the antibody was cleared from the bloodstream by administration of a clearing agent consisting of transferring derivatized with L-benzyl-EDTA-In. One hour later, the L-benzyl-EDTA-^111 In compound was administered, and the animals sacrificed after an additional three hours.
# [6] = Whole body retention of antibody complexes of EDTA-111In or 57Co compounds (Example 4); type: in vivo, Balb/C mice; conditions: WC3A11 complex
# Protocol: EDTA and BABE-EDTA were complexed with ^111 In and bleomycin, with ^57 Co, as in Example 1. […] BLEDTA-IV-^111 In, a bleomycin-EDTA-In compound containing EDTA linked to bleomycin through a dithiobutane spacer, was prepared as described in co-owned patent application for "Bleomycin Conjugates and Methods". TBEDTA-^111 In was prepared as in Example 1. WC3A11 antibody complexes were formed by incubating the WC3A11 antibody from Example 2 with a selected ^111 In cpm amount of (a) ^111 -In-EDTA, (b) ^111 In-BABE-EDTA, (c) BLEDTA-II-^111 In, (d) BL-^57 Co. (e) BLEDTA-IV-^111 In, or (f) TBEDTA-^111 In.
# Each of the antibody/EDTA-^111 In or ^57 Co complexes (a)-(f) was subjected intravenously to each of three Balb/C mice, in an amount between about 200-800 μg per animal. Twenty-four hours after the injection, the total body radioactivity of ^111 In was measured in a dual-probe scintillation counter. The values were averaged for the three animals. […] By contrast, the antibody complexes of compounds (e) and (f) (both of which contain a thiobutane-BABE-EDTA moiety) were retained to more than 30% after 24 hours, at an initial dose of about 180 μg antibody, and to greater than about 70% of an initial antibody dose of about 800 μg antibody.
# avidin = avidin (Gallus gallus, UniProt P02701); test: Binding of biotinylated chelate to avidin
# Description: To illustrate a derivatization reaction used in preparing a epitopic compound, the above bifunctional chelates can be coupled to a biotin moiety, to produce of epitopic biotin chelate capable of specific, high-affinity binding to avidin. In one coupling method, a bifunctional chelate having a free-end amine is reacted with an N-hydroxysuccinamide (NHS) ester of biotin, to link the biotin to the chelate amine through an amide linkage. The chelate amine may be formed from BABE-EDTA, for example, by amination in concentrated aqueous ammonium, and the NHS biotin ester is commercially available. […] Other active agents can be biotinylated or derivatized with carbohydrate or haptenic molecules in a similar manner.
# Sequence of avidin (P02701 25-152): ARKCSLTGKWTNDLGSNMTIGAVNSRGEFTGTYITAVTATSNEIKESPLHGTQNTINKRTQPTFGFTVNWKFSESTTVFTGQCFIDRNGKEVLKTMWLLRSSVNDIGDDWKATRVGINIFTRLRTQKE
smiles,measurement,setting,value
O=C([O-])CN(CC(=O)[O-])CC(Cc1ccc(NC(=O)CSCCCCS)cc1)N(CC(=O)[O-])CC(=O)[O-].[Co+3] (stereo not shown) [Co-TBEDTA],whole body retention (in words),[1],substantially greater retention
same,"whole-body scan, label localization at 3 hours (in words)","[2]; FIG. 3A, 3 hours","localization of the label in the kidneys (K), bladder (B) and flank tumor (T)"
same,whole-body scan at 24 hours (in words),"[2]; FIG. 3B, 24 hours",absence of label in the bladder. Good tumor imaging with low background is still achieved
same,tumor uptake and tumor-to-organ ratios (in words),"[2]; Table 3, 3 hours","high tumor-to-organ ratios for blood, and other internal organs"
O=C([O-])CN(CC(=O)[O-])CC(Cc1ccccc1)N(CC(=O)[O-])CC(=O)[O-].[111In+3] [L-benzyl-EDTA-^111 In],radioactivity remaining in blood and localized in tumor (in words),"[3]; 24 hours, Table 2A","a large percentage of radioactivity remained in the blood, although high amounts were also tumor-localized"
same,"24 Hr Conc, Blood","[3]; Hapten-Ab complex (CHA255), 24 h, blood",13.41 ± 1.48 %/gm
same,"24 Hr Conc, Bone","[3]; Hapten-Ab complex (CHA255), 24 h, bone",1.42 ± 0.22 %/gm
same,"24 Hr Conc, Gut","[3]; Hapten-Ab complex (CHA255), 24 h, gut",2.07 ± 1.42 %/gm
same,"24 Hr Conc, Heart","[3]; Hapten-Ab complex (CHA255), 24 h, heart",3.23 ± 0.48 %/gm
same,"24 Hr Conc, Kidneys","[3]; Hapten-Ab complex (CHA255), 24 h, kidneys",3.73 ± 0.81 %/gm
same,"24 Hr Conc, Liver","[3]; Hapten-Ab complex (CHA255), 24 h, liver",5.76 ± 0.86 %/gm
same,"24 Hr Conc, Lungs","[3]; Hapten-Ab complex (CHA255), 24 h, lungs",6.50 ± 0.91 %/gm
same,"24 Hr Conc, Muscle","[3]; Hapten-Ab complex (CHA255), 24 h, muscle",1.18 ± 0.16 %/gm
same,"24 Hr Conc, Skin","[3]; Hapten-Ab complex (CHA255), 24 h, skin",2.35 ± 1.19 %/gm
same,"24 Hr Conc, Spleen","[3]; Hapten-Ab complex (CHA255), 24 h, spleen",2.50 ± 0.37 %/gm
same,"24 Hr Conc, Tumor","[3]; Hapten-Ab complex (CHA255), 24 h, tumor",11.26 ± 1.40 %/gm
same,"T/O Ratio, Blood","[3]; Hapten-Ab complex, 24 h, tumor/blood",0.8
same,"T/O Ratio, Bone","[3]; Hapten-Ab complex, 24 h, tumor/bone",8.0
same,"T/O Ratio, Gut","[3]; Hapten-Ab complex, 24 h, tumor/gut",7.4
same,"T/O Ratio, Heart","[3]; Hapten-Ab complex, 24 h, tumor/heart",3.5
same,"T/O Ratio, Kidneys","[3]; Hapten-Ab complex, 24 h, tumor/kidneys",3.1
same,"T/O Ratio, Liver","[3]; Hapten-Ab complex, 24 h, tumor/liver",2.0
same,"T/O Ratio, Lungs","[3]; Hapten-Ab complex, 24 h, tumor/lungs",1.7
same,"T/O Ratio, Muscle","[3]; Hapten-Ab complex, 24 h, tumor/muscle",9.6
same,"T/O Ratio, Skin","[3]; Hapten-Ab complex, 24 h, tumor/skin",5.7
same,"T/O Ratio, Spleen","[3]; Hapten-Ab complex, 24 h, tumor/spleen",4.5
same,"Conc 1 Hr Post Hapten, Blood","[4]; Ab 23 Hr prior to hapten, 1 h, blood",24.01 ± 0.80 %/gm
same,"Conc 1 Hr Post Hapten, Bone","[4]; Ab 23 Hr prior to hapten, 1 h, bone",1.57 ± 0.09 %/gm
same,"Conc 1 Hr Post Hapten, Gut","[4]; Ab 23 Hr prior to hapten, 1 h, gut",1.51 ± 0.19 %/gm
same,"Conc 1 Hr Post Hapten, Heart","[4]; Ab 23 Hr prior to hapten, 1 h, heart",5.40 ± 0.49 %/gm
same,"Conc 1 Hr Post Hapten, Kidneys","[4]; Ab 23 Hr prior to hapten, 1 h, kidneys",5.87 ± 0.81 %/gm
same,"Conc 1 Hr Post Hapten, Liver","[4]; Ab 23 Hr prior to hapten, 1 h, liver",6.35 ± 0.50 %/gm
same,"Conc 1 Hr Post Hapten, Lungs","[4]; Ab 23 Hr prior to hapten, 1 h, lungs",9.72 ± 0.24 %/gm
same,"Conc 1 Hr Post Hapten, Muscle","[4]; Ab 23 Hr prior to hapten, 1 h, muscle",1.44 ± 0.16 %/gm
same,"Conc 1 Hr Post Hapten, Skin","[4]; Ab 23 Hr prior to hapten, 1 h, skin",1.60 ± 0.20 %/gm
same,"Conc 1 Hr Post Hapten, Spleen","[4]; Ab 23 Hr prior to hapten, 1 h, spleen",3.03 ± 0.27 %/gm
same,"Conc 1 Hr Post Hapten, Tumor","[4]; Ab 23 Hr prior to hapten, 1 h, tumor",4.08 ± 0.51 %/gm
same,"T/O Ratio, Blood","[4]; Ab 23 Hr prior to hapten, 1 h, tumor/blood",0.17
same,"T/O Ratio, Bone","[4]; Ab 23 Hr prior to hapten, 1 h, tumor/bone",2.59
same,"T/O Ratio, Gut","[4]; Ab 23 Hr prior to hapten, 1 h, tumor/gut",2.73
same,"T/O Ratio, Heart","[4]; Ab 23 Hr prior to hapten, 1 h, tumor/heart",0.76
same,"T/O Ratio, Kidneys","[4]; Ab 23 Hr prior to hapten, 1 h, tumor/kidneys",0.70
same,"T/O Ratio, Liver","[4]; Ab 23 Hr prior to hapten, 1 h, tumor/liver",0.64
same,"T/O Ratio, Lungs","[4]; Ab 23 Hr prior to hapten, 1 h, tumor/lungs",0.42
same,"T/O Ratio, Muscle","[4]; Ab 23 Hr prior to hapten, 1 h, tumor/muscle",2.84
same,"T/O Ratio, Skin","[4]; Ab 23 Hr prior to hapten, 1 h, tumor/skin",2.57
same,"T/O Ratio, Spleen","[4]; Ab 23 Hr prior to hapten, 1 h, tumor/spleen",1.36
same,tumor uptake and tumor/organ uptake ratios (in words),[4]; compared with coadministration of antibody and In compound,lower levels of tumor uptake and lower tumor/organ uptake ratios
same,"Conc 3 Hrs Post Hapten, Blood","[5]; Ab 25 Hr, blocking agent 1 Hr prior to hapten, 3 h, blood",0.95 ± 0.44 %/gm
same,"Conc 3 Hrs Post Hapten, Bone","[5]; Ab 25 Hr, blocking agent 1 Hr prior to hapten, 3 h, bone",1.50 ± 0.37 %/gm
same,"Conc 3 Hrs Post Hapten, Gut","[5]; Ab 25 Hr, blocking agent 1 Hr prior to hapten, 3 h, gut",2.66 ± 0.61 %/gm
same,"Conc 3 Hrs Post Hapten, Heart","[5]; Ab 25 Hr, blocking agent 1 Hr prior to hapten, 3 h, heart",0.92 ± 0.29 %/gm
same,"Conc 3 Hrs Post Hapten, Kidneys","[5]; Ab 25 Hr, blocking agent 1 Hr prior to hapten, 3 h, kidneys",1.10 ± 0.16 %/gm
same,"Conc 3 Hrs Post Hapten, Liver","[5]; Ab 25 Hr, blocking agent 1 Hr prior to hapten, 3 h, liver",0.87 ± 0.39 %/gm
same,"Conc 3 Hrs Post Hapten, Lungs","[5]; Ab 25 Hr, blocking agent 1 Hr prior to hapten, 3 h, lungs",2.55 ± 0.24 %/gm
same,"Conc 3 Hrs Post Hapten, Muscle","[5]; Ab 25 Hr, blocking agent 1 Hr prior to hapten, 3 h, muscle",3.48 ± 0.77 %/gm
same,"Conc 3 Hrs Post Hapten, Skin","[5]; Ab 25 Hr, blocking agent 1 Hr prior to hapten, 3 h, skin",4.86 ± 0.45 %/gm
same,"Conc 3 Hrs Post Hapten, Spleen","[5]; Ab 25 Hr, blocking agent 1 Hr prior to hapten, 3 h, spleen",0.21 ± 0.04 %/gm
same,"Conc 3 Hrs Post Hapten, Tumor","[5]; Ab 25 Hr, blocking agent 1 Hr prior to hapten, 3 h, tumor",7.72 ± 1.35 %/gm
same,In levels in blood and internal organs relative to tumor (in words),[5]; after clearing agent,In levels in the blood and internal organs was greatly reduced relative to the levels concentrated in the tumor
same,"T/O Ratio, Blood","[5]; blocking agent 1 Hr prior to hapten, 3 h, tumor/blood",9.20
same,"T/O Ratio, Bone","[5]; blocking agent 1 Hr prior to hapten, 3 h, tumor/bone",5.40
same,"T/O Ratio, Gut","[5]; blocking agent 1 Hr prior to hapten, 3 h, tumor/gut",2.97
same,"T/O Ratio, Heart","[5]; blocking agent 1 Hr prior to hapten, 3 h, tumor/heart",8.71
same,"T/O Ratio, Kidneys","[5]; blocking agent 1 Hr prior to hapten, 3 h, tumor/kidneys",7.04
same,"T/O Ratio, Liver","[5]; blocking agent 1 Hr prior to hapten, 3 h, tumor/liver",10.21
same,"T/O Ratio, Lungs","[5]; blocking agent 1 Hr prior to hapten, 3 h, tumor/lungs",3.02
same,"T/O Ratio, Muscle","[5]; blocking agent 1 Hr prior to hapten, 3 h, tumor/muscle",2.33
same,"T/O Ratio, Skin","[5]; blocking agent 1 Hr prior to hapten, 3 h, tumor/skin",1.61
same,"T/O Ratio, Spleen","[5]; blocking agent 1 Hr prior to hapten, 3 h, tumor/spleen",38.03
O=C([O-])CN(CC(=O)[O-])CC(Cc1ccc(NC(=O)CSCCCCS)cc1)N(CC(=O)[O-])CC(=O)[O-].[111In+3] (stereo not shown) [TBEDTA-^111 In],"retained after 24 hours, about 180 μg antibody",[6]; initial dose about 180 μg antibody,more than 30%
same,"retained after 24 hours, about 800 μg antibody",[6]; initial dose about 800 μg antibody,greater than 70%
O=C(O)CN(CC(=O)O)CC(Cc1ccc(NC(=O)CNC(=O)CCCC[C@@H]2SC[C@@H]3NC(=O)N[C@@H]32)cc1)N(CC(=O)O)CC(=O)O (stereo partly shown) [biotinylated glycineamidobenzyl EDTA],binding to avidin (in words),avidin,bind with high affinity to avidin
